Measured values: US20170253601A1, “Substituted Pyrrolidine Compounds” (EPIZYME, INC., priority 2014, published 2017)
pIC50: −log10 of the molar value.

Molecular target: T1, SMYD2 (Homo sapiens, UniProt Q9NRG4)
T1 construct: Full length SMYD2 (NP 064582.2) was cloned; His6 (N, cleaved yes); FLAG (N); made in house; host or cells: Sf9 insect cells
Assay: SMYD2 Biochemical Assay (3H-SAM, biotinylated peptide substrate, Flashplate)
Conditions: Table 1; average of n = 1 to n = 50; read-out: SMYD2 Biochem IC50
Method in brief: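 Full-length His/FLAG-tagged SMYD2 expressed in Sf9 cells with tag cleaved, 1.5 nM, pre-incubated 30 min at room temperature with compound, then 10 nM 3H-SAM and 60 nM biotinylated peptide added. Buffer 20 mM Bicine pH 7.6, 1 mM TCEP, 0.005% BSG, 0.002% Tween20, 2% DMSO. Stopped with 600 uM cold SAM; 3H-peptide captured on streptavidin Flashplate; IC50 by curve fit.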

T1 sequence (Q9NRG4 whole entry): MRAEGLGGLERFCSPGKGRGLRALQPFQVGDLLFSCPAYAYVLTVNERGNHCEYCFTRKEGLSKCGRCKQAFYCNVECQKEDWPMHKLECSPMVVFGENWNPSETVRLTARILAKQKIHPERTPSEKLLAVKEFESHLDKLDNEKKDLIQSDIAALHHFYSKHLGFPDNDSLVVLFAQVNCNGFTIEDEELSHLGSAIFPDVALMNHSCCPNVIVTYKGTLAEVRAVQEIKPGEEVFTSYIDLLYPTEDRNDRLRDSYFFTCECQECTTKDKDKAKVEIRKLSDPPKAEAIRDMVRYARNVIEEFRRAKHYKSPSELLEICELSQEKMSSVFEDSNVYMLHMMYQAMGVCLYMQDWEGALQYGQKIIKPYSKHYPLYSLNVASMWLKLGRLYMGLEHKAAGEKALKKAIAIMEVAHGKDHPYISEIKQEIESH

Row | Compound | pIC50
1 | CN1C[C@H](NC(=O)c2cc(C3CC3)on2)[C@H](c2ccccc2)C1 (racemic) [compound 17, (±)-cis-5-cyclopropyl-N-((1-methyl-4-phenylpyrrolidin-3-yl)isoxazole-3-carboxamide] | < 4.30
2 | CN1C[C@H](NC(=O)c2cc(C3CC3)on2)[C@@H](c2ccccc2)C1 (racemic) [compound 18, (±)-trans-5-cyclopropyl-N-(1-methyl-4-phenylpyrrolidin-3-yl)isoxazole-3-carboxamide] | < 4.30
3 | C[C@@H]1C[C@H](NC(=O)c2cc(C3CC3)on2)C(=O)N1c1cnn(C)c1 (racemic) [compound 19, (±)-cis-5-cyclopropyl-N-(5-methyl-1-(1-methyl-1H-pyrazol-4-yl)-2-oxopyrrolidin-3-yl)isoxazole-3-carboxamide] | < 4.30
4 | C[C@H]1C[C@H](NC(=O)c2cc(C3CC3)on2)C(=O)N1c1cnn(C)c1 (racemic) [compound 20, (±)-trans 5-cyclopropyl-N-(5-methyl-1-(1-methyl-1H-pyrazol-4-yl)-2-oxopyrrolidin-3-yl)isoxazole-3-carboxamide] | < 4.30
5 | CC(=O)Nc1ccc(S(=O)(=O)N2CC[C@H](NC(=O)c3cc(C4CC4)on3)C2)cc1 [compound 1, (S)-N-(1-((4-acetamido-phenyl)sulfonyl)pyrrolidin-3-yl)-5-cyclopropyl-isoxazole-3-carboxamide] | < 4.30
6 | CN1CCC(NC(=O)c2cc(C3CC3)on2)C1c1ccccc1 (centres unmarked) [compound 5, 5-cyclopropyl-N-(1-methyl-2-phenyl-pyrrolidin-3-yl)isoxazole-3-carboxamide] | < 4.30
7 | Cc1cc(N2CCC(NC(=O)c3cc(C4CC4)on3)C2=O)n(C)n1 (centres unmarked) [compound 6, 5-cyclopropyl-N-(1-(1,3-dimethyl-1H-pyrazol-5-yl)-2-oxopyrrolidin-3-yl)isoxazole-3-carboxamide] | < 4.30
8 | CN1CCC(NC(=O)c2cc(C3CC3)on2)C1c1ccc(Cl)c(F)c1 (centres unmarked) [compound 7, N-(2-(4-chloro-3-fluorophenyl)-1-methylpyrrolidin-3-yl)-5-cyclo-propylisoxazole-3-carboxamide] | < 4.30
9 | O=C(NC1CCN(C2CC2)C1c1ccc(F)c(F)c1)c1cc(C2CC2)on1 (centres unmarked) [compound 8, 5-cyclopropyl-N-(1-cyclopropyl-2-(3,4-difluoro-phenyl)pyrrolidin-3-yl)isoxazole-3-carboxamide] | < 4.30
10 | CN1CCC(NC(=O)c2cc(C3CC3)on2)C1c1ccc(F)c(F)c1 (centres unmarked) [compound 9, 5-cyclopropyl-N-(2-(3,4-difluorophenyl)-1-methylpyrrolidin-3-yl)isoxazole-3-carboxamide] | < 4.30
11 | CC1CC(NC(=O)c2cc(C3CC3)on2)CN1c1ccccc1 (centres unmarked) [compound 10, 5-cyclopropyl-N-(5-methyl-1-phenylpyrrolidin-3-yl)isoxazole-3-carboxamide] | < 4.30
12 | CC1CC(NC(=O)c2cc(C3CC3)on2)C(=O)N1c1ccccc1 (centres unmarked) [compound 11, 5-cyclopropyl-N-(5-methyl-2-oxo-1-phenylpyrrolidin-3-yl)isoxazole-3-carboxamide] | < 4.30
13 | CC(C)N1CCC(NC(=O)c2cc(C3CC3)on2)C1c1ccc(F)c(F)c1 (centres unmarked) [compound 12, 5-cyclopropyl-N-(2-(3,4-difluorophenyl)-1-isopropylpyrrolidin-3-yl)isoxazole-3-carboxamide] | < 4.30
14 | CN1CCC(NC(=O)c2cc(C3CC3)on2)C1c1ccc(F)cc1 (centres unmarked) [compound 13, 5-cyclopropyl-N-(2-(4-fluorophenyl)-1-methylpyrrolidin-3-yl)isoxazole-3-carboxamide] | < 4.30
15 | CN1C(=O)CC(NC(=O)c2cc(C3CC3)on2)C1c1ccc(F)cc1 (centres unmarked) [compound 14, 5-cyclopropyl-N-(2-(4-fluorophenyl)-1-methyl-5-oxopyrrolidin-3-yl)isoxazole-3-carboxamide] | < 4.30
16 | Cn1ccc(N2CCC(NC(=O)c3cc(C4CC4)on3)C2=O)n1 (centres unmarked) [compound 15, 5-cyclopropyl-N-(1-(1-methyl-1H-pyrazol-3-yl)-2-oxopyrrolidin-3-yl)isoxazole-3-carboxamide] | < 4.30
17 | COc1cccc(C2C(NC(=O)c3cc(C4CC4)on3)CCN2C2CC2)c1 (centres unmarked) [compound 16, 5-cyclopropyl-N-(1-cyclopropyl-2-(3-methoxy-phenyl)pyrrolidin-3-yl)isoxazole-3-carboxamide] | < 4.30
18 | CC1CC(NC(=O)c2cc(C3CC3)on2)CN1Cc1ccccc1 (centres unmarked) [compound 21, N-(1-benzyl-5-methylpyrrolidin-3-yl)-5-cyclopropyl-isoxazole-3-carboxamide] | 4.35
19 | CC(c1ccccc1)N1CCC(NC(=O)c2cc(C3CC3)on2)C1 (centres unmarked) [compound 24, 5-cyclopropyl-N-(1-(1-phenylethyl)pyrrolidin-3-yl)isoxazole-3-carboxamide] | < 4.30
20 | O=C(NC1CC(=O)N(c2ccccc2)C1)c1cc(C2CC2)on1 (centres unmarked) [compound 25, 5-cyclopropyl-N-(5-oxo-1-phenylpyrrolidin-3-yl)isoxazole-3-carboxamide] | < 4.30
21 | O=C(NC1CC(=O)N(Cc2ccccc2)C1)c1cc(C2CC2)on1 (centres unmarked) [compound 26, N-(1-benzyl-5-oxopyrrolidin-3-yl)-5-cyclopropylisoxazole-3-carboxamide] | < 4.30
22 | O=C(NC1CCN(Cc2ccccc2)C1=O)c1cc(C2CC2)on1 (centres unmarked) [compound 27, N-(1-benzyl-2-oxopyrrolidin-3-yl)-5-cyclopropylisoxazole-3-carboxamide] | < 4.30
23 | O=C(NC1CCN(c2ccccc2)C1=O)c1cc(C2CC2)on1 (centres unmarked) [compound 28, 5-cyclopropyl-N-(2-oxo-1-phenyl-pyrrolidin-3-yl)isoxazole-3-carboxamide] | < 4.30

Further lines, results first:

Row | pIC50 | Compound
24 | < 4.30 | CC(=O)Nc1ccc(S(=O)(=O)N2CC[C@@H](NC(=O)c3cc(C4CC4)on3)C2)cc1 [compound 2, (R)-N-(1-((4-acetamido-phenyl)sulfonyl)pyrrolidin-3-yl)-5-cyclopropyl-isoxazole-3-carboxamide]
25 | 4.31 | O=C(N[C@H]1CCNC1)c1cc(C2CC2)on1 [compound 3, (S)-5-cyclopropyl-N-(pyrrolidin-3-yl)isoxazole-3-carboxamide]
26 | < 4.30 | O=C(N[C@@H]1CCNC1)c1cc(C2CC2)on1 [compound 4, (R)-5-cyclopropyl-N-(pyrrolidin-3-yl)isoxazole-3-carboxamide]
27 | < 4.30 | CC1CC(NC(=O)c2cc(C3CC3)on2)CN1C1CC1 (centres unmarked) [compound 22, 5-cyclopropyl-N-(1-cyclopropyl-5-methylpyrrolidin-3-yl)isoxazole-3-carboxamide]
28 | 5.29 | CC1CN(C2CC2)CC1NC(=O)c1cc(C2CC2)on1 (centres unmarked) [compound 23, 5-cyclopropyl-N-(1-cyclopropyl-4-methylpyrrolidin-3-yl)isoxazole-3-carboxamide]
29 | < 4.30 | CN1CCC(NC(=O)c2cc(C3CC3)on2)C1 (centres unmarked) [compound 29, 5-cyclopropyl-N-(1-methylpyrrolidin-3-yl)isoxazole-3-carboxamide]
30 | < 4.30 | NCCCC(=O)N1CC[C@@H](NC(=O)c2cc(C3CC3)on2)C1 [compound 30, (R)-N-(1-(4-amino-butanoyl)pyrrolidin-3-yl)-5-cyclopropyl-isoxazole-3-carboxamide]
31 | < 4.30 | N[C@H]1CC[C@H](C(=O)N2CC[C@@H](NC(=O)c3cc(C4CC4)on3)C2)CC1 [compound 31, N-((R)-1-((1r,4r)-4-aminocyclohexane-1-carbonyl)pyrrolidin-3-yl)-5-cyclopropyl-isoxazole-3-carboxamide]
32 | < 4.30 | NCCCC(=O)N1CC[C@H](NC(=O)c2cc(C3CC3)on2)C1 [compound 32, (S)-N-(1-(4-amino-butanoyl)pyrrolidin-3-yl)-5-cyclopropyl-isoxazole-3-carboxamide]
33 | < 4.30 | N[C@H]1CC[C@H](C(=O)N2CC[C@H](NC(=O)c3cc(C4CC4)on3)C2)CC1 [compound 33, N-((S)-1-((1r,4s)-4-aminocyclohexane-1-carbonyl)pyrrolidin-3-yl)-5-cyclopropyl-isoxazole-3-carboxamide]
34 | < 4.30 | NCCCS(=O)(=O)N1CC[C@@H](NC(=O)c2cc(C3CC3)on2)C1 [compound 34, (R)-N-(1-((3-amino-propyl)sulfonyl)pyrrolidin-3-yl)-5-cyclopropyl-isoxazole-3-carboxamide]
35 | < 4.30 | NCCCS(=O)(=O)N1CC[C@H](NC(=O)c2cc(C3CC3)on2)C1 [compound 35, (S)-N-(1-((3-amino-propyl)sulfonyl)pyrrolidin-3-yl)-5-cyclopropyl-isoxazole-3-carboxamide]
